Reference: patent US12678515B2, “Lipids and lipid nanoparticle formulations for delivery of nucleic acids” (Acuitas Therapeutics, Inc., priority 2015, dated 2026)

Tested on: luciferase expression in the liver
Experiment: In vivo luciferase mRNA expression rodent model (lipid nanoparticle formulations of cationic lipids)
Parameters: species or system mice
Conditions: luciferase expression in liver 4 hours after tail vein injection; LNP 50% cationic lipid/10% DSPC/38.5% cholesterol/1.5% PEG-DMA; MC3 activity=1
Method: Cationic lipid (MC3), DSPC, cholesterol and PEG-lipid were solubilized in ethanol at a molar ratio of 50:10:38.5:1.5. Lipid nanoparticles (LNP) were prepared at a total lipid to mRNA weight ratio of approximately 10:1 to 30:1. Briefly, the mRNA was diluted to 0.2 mg/mL in 10 to 50 mM citrate buffer, pH 4. Syringe pumps were used to mix the ethanolic lipid solution with the mRNA aqueous solution at a ratio of about 1:5 to 1:3 (vol/vol) with total flow rates above 15 mL/min. The ethanol was then removed and the external buffer replaced with PBS by dialysis. Finally, the lipid nanoparticles were filtered through a 0.2 μm pore sterile filter. Lipid nanoparticle particle size was approximately 55-95 nm diameter, and in some instances approximately 70-90 nm diameter as determined by quasi-elastic light scattering using a Malvern Zetasizer Nano ZS (Malvern, UK) or by using a Nicomp 370 submicron particle sizer (Santa Barbara, CA).
Studies were performed in 6-8 week old female C57BL/6 mice (Charles River) 8-10 week old CD-1 (Harlan) mice (Charles River) according to guidelines established by an institutional animal care committee (ACC) and the Canadian Council on Animal Care (CCAC). Varying doses of mRNA-lipid nanoparticle were systemically administered by tail vein injection and animals euthanized at specific time points (1, 2, 4, 8 and 24 hrs) post-administration. Liver and spleen were collected in pre-weighed tubes, weights determined, immediately snap frozen in liquid nitrogen and stored at −80° C. until processing for analysis.
For liver, approximately 50 mg was dissected for analyses in a 2 mL FastPrep tubes (MP Biomedicals, Solon OH). ¼″ ceramic sphere (MP Biomedicals) was added to each tube and 500 μL of Glo Lysis Buffer—GLB (Promega, Madison WI) equilibrated to room temperature was added to liver tissue. Liver tissues were homogenized with the FastPrep24 instrument (MP Biomedicals) at 2×6.0 m/s for 15 seconds. Homogenate was incubated at room temperature for 5 minutes prior to a 1:4 dilution in GLB and assessed using SteadyGlo Luciferase assay system (Promega). Specifically, 50 μL of diluted tissue homogenate was reacted with 50 μL of SteadyGlo substrate, shaken for 10 seconds followed by 5 minute incubation and then quantitated using a CentroXS^3 LB 960 luminometer (Berthold Technologies, Germany). The amount of protein assayed was determined by using the BCA protein assay kit (Pierce, Rockford IL). Relative luminescence units (RLU) were then normalized to total μg protein assayed. To convert RLU to ng luciferase a standard curve was generated with QuantiLum Recombinant Luciferase (Promega). Based on the data provided in FIG. 1, the four-hour time point was chosen for efficacy evaluation of the lipid formulations (see Example 3). […]

SMILES	Activity Relative to MC3
CCCCCCCCC(CCCCCC)C(=O)OCCCCCCCCCC(CCCCCCCCCOC(=O)C(CCCCCC)CCCCCCCC)OC(=O)CCCN(C)C (stereo not shown) [Compound 1, 10-{[4′-(dimethylamino)butanoyl]oxy}-19-[(2-hexyldecanoyl)oxy]nonadecyl 2-hexyldecanoate]	~2
CCCCCCCCC(CCCCCC)COC(=O)CCCCCCCCCCCC(CCCCCCCCCCCC(=O)OCC(CCCCCC)CCCCCCCC)OC(=O)CCCN(C)C (stereo not shown) [Compound 2, 1,25-di-(2′-hexyldecyl)13-{[4-(dimethylamino)butanoyl]oxy}pentacosanedioate]	~0.75
CCCCCCCCC(CCCCCC)C(=O)OCCCCCCCCCC(CCCCCCCCCOC(=O)C(CCCCCC)CCCCCCCC)OC(=O)CCCCN(C)C (stereo not shown) [Compound 3, 10-{[5-(dimethylamino)pentanoyl]oxy}-19-[(2-hexyldecanoyl)oxy]nonadecyl 2-hexyldecanoate]	~8
CCCCC/C=C\C/C=C\CCCCCCCCC(CCCCCCCC/C=C\C/C=C\CCCCC)OC(=O)CCCN(C)C [MC3, reference compound]	1
